Among the test systems are IGROV1 ovarian; SK-MEL-5 melanoma; SW-620 colon; MOLT-4 leukemia; HCC-2998 colon; KM12 colon; A549 NSCLC; OVCAR-5 ovarian; M14 melanoma; PC-3 prostate.
What all share (assay): NCI tumour cell line growth inhibition, 48 h

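How tested: cells in 96-well plates exposed to compound for 48 hours at five concentrations. TGI: concentration producing complete growth inhibition.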

In the case of `N#C/C(C(=O)Nc1ccccc1)=C(/N)N1CCOCC1`, the TGI with IGROV1 ovarian, with SK-MEL-5 melanoma, with SW-620 colon, in the test with MOLT-4 leukemia, with HCC-2998 colon and with KM12 colon was above 100 µM each time. In addition, the TGI in the test with A549 NSCLC, in the test on OVCAR-5 ovarian, with M14 melanoma and in the test on PC-3 prostate was above 100 µM in each case.
In the case of `CC(=O)c1c2c(cc3c1CC1(Cc4ccccc4C1=O)C3)CCC2` (stereo not given), the TGI with IGROV1 ovarian was above 100 µM; with SK-MEL-5 melanoma, 23 µM; in the test on SW-620 colon, above 100 µM; in the test on MOLT-4 leukemia, 29.1 µM; in the test with HCC-2998 colon, above 100 µM; in the test on KM12 colon, 49 µM. Further, the TGI in the test on A549 NSCLC was above 100 µM; in the test on OVCAR-5 ovarian, above 100 µM; in the test on M14 melanoma, 74.5 µM; in the test on PC-3 prostate it was above 100 µM.
Turning to `O=C(O)/C=N\Nc1nc2ccccc2[nH]1`, the TGI with IGROV1 ovarian, with SK-MEL-5 melanoma, in the test with SW-620 colon, with MOLT-4 leukemia, in the test with HCC-2998 colon and in the test on KM12 colon was above 100 µM in each case. For the same compound, the TGI in the test with A549 NSCLC, in the test with OVCAR-5 ovarian, with M14 melanoma and in the test on PC-3 prostate was above 100 µM in each case.
With `Cc1cc(N(CCC#N)CCC#N)ccc1/C(N=Nc1ccc([N+](=O)[O-])cc1)=N\NC(=O)c1cc(Cl)ccc1C(=O)c1ccccc1`, the TGI with IGROV1 ovarian is 17.9 µM; in the test with SK-MEL-5 melanoma, 27.3 µM; in the test on SW-620 colon it was 82.2 µM; in the test on MOLT-4 leukemia it was 38.8 µM; in the test on HCC-2998 colon it was 30.3 µM; in the test on KM12 colon, 47.8 µM. In addition, the TGI with A549 NSCLC was above 100 µM; in the test on OVCAR-5 ovarian, above 100 µM; with M14 melanoma, above 100 µM; with PC-3 prostate, 83.3 µM.
In the case of `CC1=C(C#N)C(C#N)(C#N)C(NN(C)C)C1` (stereo not given), the TGI with IGROV1 ovarian is 40.9 µM; in the test with SK-MEL-5 melanoma, 17.5 µM; in the test on SW-620 colon, above 100 µM; in the test with MOLT-4 leukemia it was 79.5 µM; in the test on HCC-2998 colon, 32.1 µM; in the test with KM12 colon it was 31.8 µM. Besides, the TGI with A549 NSCLC was above 100 µM; with OVCAR-5 ovarian, 47.4 µM; in the test with M14 melanoma it was above 100 µM; in the test with PC-3 prostate it was 46.6 µM.
In the case of `COCCOCc1nc(C#N)c(N)o1`, the TGI in the test on IGROV1 ovarian, in the test on SK-MEL-5 melanoma, with SW-620 colon, in the test with MOLT-4 leukemia, with HCC-2998 colon and in the test with KM12 colon was above 100 µM each time. The TGI with A549 NSCLC, in the test on OVCAR-5 ovarian, in the test on M14 melanoma and with PC-3 prostate was above 100 µM throughout.
For `CCn1c(-c2cc(OC)cc(OC)c2)nc2c1C(=O)c1ccccc1C2=O`, the TGI in the test on IGROV1 ovarian, with SK-MEL-5 melanoma, in the test with SW-620 colon, in the test with MOLT-4 leukemia, in the test with HCC-2998 colon and with KM12 colon was above 100 µM each time. Also, the TGI with A549 NSCLC, in the test with OVCAR-5 ovarian, in the test with M14 melanoma and with PC-3 prostate was above 100 µM in each case.

These data come from PubChem BioAssay (NCI).
